Measured values published in article PMC9953660, “Using ΔK280 TauRD Folding Reporter Cells to Screen TRKB Agonists as Alzheimer’s Disease Treatment Strategy” (Biomolecules, 2023).

System: TRKB knockdown ΔK280 TauRD-DsRed SH-SY5Y cells
Test: TRKB RNA interference: TRKB protein level and neurite outgrowth
Assay type: cell-based, human
Conditions: 10 μM
Protocol: ΔK280 TauRD-DsRed SH-SY5Y cells were plated in the presence of 10 μM retinoid acid (RA; Sigma-Aldrich) to promote neuronal differentiation. The next day, cells were added with congo red or ZN/VB compounds (2–10 μM) for 8 h pretreatment, followed by inducing ΔK280 TauRD-DsRed expression with doxycycline (2 μg/mL). On day 8, cell nuclei were stained with Hoechst 33342 (0.1 μg/mL; Thermo Scientific), and cell images acquired using ImageXpress Micro Confocal High-Content Imaging System (Molecular Devices, San Jose, CA, USA) with DAPI (4′,6-diamidino-2-phenylindole, for nuclei) and TRITC (tetramethylrhodamine, for DsRed) fluorescence filter sets. To detect ROS changes, 10 μM compound-treated cells were stained with Hoechst 33342 and 2′,7′-dichlorodihydrofluorescein diacetate (H2DCFDA, 10 μM) fluorescein (Invitrogen, Carlsbad, CA, USA), and cell images captured using DAPI and FITC (fluorescein isothiocyanate, for DCF) filters. […] The nuclei and neurite images were acquired with DAPI and TRITC fluorescence filters, respectively. […]
Cells were collected and protein extracted as described. […] Protein signals were detected with chemiluminescent substrate (Millipore) using the ImageQuant™ LAS 4000 imager and analysis software (GE Healthcare, UK). […]

`O=C(/C=C/c1ccccc1O)c1c(O)c2ccccc2oc1=O` [ZN-015, (E)-4-hydroxy-3-(3-(2-hydroxyphenyl)acryloyl)-2H-chromen-2-one] gave a neurite process (TRKB knockdown) of 2.17 and a neurite process (scrambled shRNA) of 2.35.
